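Values below derive from 48-hour exposures of cells grown in 96-well plates, with endpoints linearly interpolated between the two concentrations bracketing the appropriate inhibition level. GI50 marks 50% less growth. TGI marks complete inhibition of growth.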
Columns and labels:
Assay in all cases: NCI tumour cell line growth inhibition, 48 h
NCI-H226 lung = test system: NCI-H226 lung
HL-60(TB) leukemia = test system: HL-60(TB) leukemia
OVCAR-3 ovarian = test system: OVCAR-3 ovarian
NCI-H460 lung = test system: NCI-H460 lung
U251 CNS = test system: U251 CNS
EKVX NSCLC = test system: EKVX NSCLC
SF-539 CNS = test system: SF-539 CNS
NCI-H23 lung = test system: NCI-H23 lung
CCRF-CEM leukemia = test system: CCRF-CEM leukemia
HCC-2998 colon = test system: HCC-2998 colon

Row | Compound | TGI (NCI-H226 lung) | TGI (HL-60(TB) leukemia) | TGI (OVCAR-3 ovarian) | TGI (NCI-H460 lung) | TGI (U251 CNS) | TGI (EKVX NSCLC) | TGI (SF-539 CNS) | TGI (NCI-H23 lung) | GI50 (NCI-H226 lung) | GI50 (CCRF-CEM leukemia) | TGI (CCRF-CEM leukemia) | GI50 (HL-60(TB) leukemia) | GI50 (OVCAR-3 ovarian) | GI50 (NCI-H460 lung) | GI50 (U251 CNS) | GI50 (HCC-2998 colon) | TGI (HCC-2998 colon) | GI50 (SF-539 CNS) | GI50 (NCI-H23 lung) | GI50 (EKVX NSCLC)
1 | O=c1c(Cl)c(Cl)c(=O)c2sc3cc(Cl)ccc3[nH]c1=2 | > 100 µM | 23.7 µM | 30.7 µM | > 100 µM | > 100 µM | 28.7 µM | > 100 µM | > 100 µM |  |  |  |  |  |  |  |  |  |  |  | 
2 | COc1cc(-c2nc(-c3nc4ccccc4[nH]3)cc3c2[nH]c2ccccc23)cc(OC)c1OC | > 100 µM | > 100 µM | > 100 µM | > 100 µM | > 100 µM |  | > 100 µM | > 100 µM | 7.19 µM | 3960 nM | > 100 µM | 4.37 µM | 6200 nM | 3.96 µM | 4.76 µM | 7.32 µM | > 100 µM | 23.1 µM | 4.4 µM | 
3 | CSc1n[n+]2c(s1)SCCC2 |  | > 100 µM | > 100 µM | > 100 µM | > 100 µM |  | > 100 µM | > 100 µM |  |  | > 100 µM |  |  |  |  |  | > 100 µM |  |  | 
4 | CN(Cc1cc(Cl)cc(Cl)c1)CC(C(=O)c1ccccc1)c1ccccc1 (configuration not stated) | 22.4 µM | 47.4 µM | 3.65 µM | > 100 µM | 4.17 µM | 57.6 µM | 23.2 µM | 7.06 µM |  |  |  |  |  |  |  |  |  |  |  | 
5 | CCN(CC)CCCC(C)N=C(C1=C(C(=NC(C)CCCN(CC)CC)c2cccc(OC)c2)C(=O)NC1=O)c1cccc(OC)c1 (configuration not stated) | 13.6 µM | 11.7 µM | 4.11 µM | 2.13 µM | 2.5 µM |  |  | 9.11 µM | 2.83 µM | 1490 nM | 7.47 µM | 3.66 µM | 1450 nM | 0.841 µM | 1.06 µM | 1.05 µM | 2.2 µM |  | 2.52 µM | 
6 | COc1cc(CNc2ccccc2C(=O)N2CCN(C(=O)c3cc(-c4cc(OC)c(OC)c(OC)c4)n4nc(-c5ccccc5)cc4n3)CC2)cc(OC)c1OC | 59.4 µM | > 100 µM | 9.59 µM | > 100 µM | 70.3 µM | > 100 µM | > 100 µM | > 100 µM | 4.44 µM |  |  | 1.98 µM | 2690 nM | 3.32 µM | 3.37 µM | 5.8 µM | > 100 µM | 2.54 µM | 4.96 µM | 4.96 µM
7 | Cc1cn2c(/C=N/N=C(N)N)c(-c3cccs3)nc2s1 | 18.9 µM |  | 5.5 µM | 26.7 µM | 3.86 µM | 21.1 µM | 3.12 µM | 24 µM | 4.18 µM | 1340 nM | 3.24 µM |  | 1910 nM | 5.46 µM | 1.77 µM | 1.77 µM | 3.24 µM | 1.6 µM | 11.7 µM | 8.8 µM
8 | CCC(CNc1cc(OC)cc2cccnc12)NC1CCCCC1 (configuration not stated) | > 100 µM | 41.7 µM | 65.5 µM | 41 µM | > 100 µM | > 100 µM | > 100 µM | > 100 µM | 86 µM |  |  | 15.2 µM | 17300 nM | 16.8 µM | 43.3 µM | 19.3 µM | 41.4 µM | 56.8 µM | 51.3 µM | 40.1 µM
